US20260007601A1, “IONIZABLE CATIONIC LIPID COMPOUND AND COMPOSITION FOR DELIVERING NUCLEIC ACID AND USE THEREOF” (BEIJING YOUCAREKECHUANG PHARMACEUTICAL TECHNOLOGY CO., LTD., priority 2023, published 2026)
Values joined by “and” are separate entries in the source; they are usually repeats but may differ in a detail not shown here. Equal entries are not always repeated.

How the values were obtained:
[1] = Particle size and polydispersity index (PDI) of nanolipid particles, dynamic light scattering; format: physicochemical; settings: LNP formulation prepared from the named cationic lipid, 25° C
Protocol: The particle size and polydispersity index (PDI) were determined by dynamic light scattering method using a Malvern laser particle size analyzer. 10 μL of liposome solution was diluted to 1 mL with RNase-free deionized water and added to a sample pool. Each sample was measured three times. The measurement conditions were: 90° scattering angle, 25° C.

[2] = Encapsulation rate, drug loading concentration and total RNA concentration detection (RiboGreen); format: physicochemical
[3] = test system: 293T cells; assay: Fluorescence detection of Fluc-mRNA (cell transfection efficiency of LNP formulations); format: cell-based
Method in brief: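 293T cells at 10,000 per well, adhered overnight, then given LNPs carrying 0.3 μg Fluc-mRNA (cationic:neutral:structured:polymer-conjugated lipid 49:10:39.5:1.5 molar). After 24 h, luciferase signal read with luciferase kit reagents on an IVIS imaging system as transfection efficiency.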

[4] = LNP formulation of the named lipid

In the case of CCCCCCCCC(CCCCCCCC)COC(=O)CCCCCN(CCCCCC(=O)OCC(CCCCCCCC)CCCCCCCC)CCN(C)CCO [YK-209, bis(2-octyldecyl)-6,6′-((2-(2-hydroxyethyl(methyl)amino)ethyl)azadialkyl)dihexanoate], the PDI [1] is reported as 26.6%, the Particle size [1] is reported as 226 nm and the “drug loading concentration, times that of ALC-0315” value [2] is reported as 1.60 times. For the same compound, the “drug loading concentration, times that of HHMA” value [2] was 1.36 times, the “drug loading concentration, times that of SM-102” value [2] was 1.64 times and the “drug loading concentration, times that of YK-009” value [2] was 1.55 times. The “drug loading concentration, times that of compound 21” value [2] was 1.85 times, the “drug loading concentration, times that of compound 23” value [2] was 2.02 times and 2 times and the “total RNA concentration, times that of ALC-0315” value [2] was 1.17 times. The “total RNA concentration, times that of HHMA” value [2] was 1.15 times, the “total RNA concentration, times that of SM-102” value [2] was 1.23 times and the “total RNA concentration, times that of YK-009” value [2] was 1.12 times. The “total RNA concentration, times that of compound 21” value [2] was 1.41 times, the “total RNA concentration, times that of compound 23” value [2] was 1.34 times and the Drug loading concentration [2, 4] was 41.76 µg/mL. For the same compound, the Encapsulation rate [2, 4] was 96.2%, the “Total RNA concentration” value [2, 4] was 43.42 µg/mL and the “encapsulation rate higher than that of ALC-0315” value ([2]; difference of rates) was 33.40%. For the same compound, the “encapsulation rate higher than that of HHMA” value ([2]; difference of rates) was 35.70%, the “encapsulation rate higher than that of SM-102” value ([2]; difference of rates) was 33.90% and the “encapsulation rate higher than that of YK-009” value ([2]; difference of rates) was 33.20%. The “encapsulation rate higher than that of compound 21” value ([2]; difference of rates) was 38.40%, the “encapsulation rate higher than that of compound 23” value ([2]; difference of rates) was 41% and the “RLU / cell transfection efficiency, times that of ALC-0315” value ([3]; Fluc-mRNA LNP) was 12.51 times. For the same compound, the “RLU / cell transfection efficiency, times that of HHMA” value ([3]; Fluc-mRNA LNP) was 12.79 times, the “RLU / cell transfection efficiency, times that of Lipofectamine 3000” value ([3]; Fluc-mRNA LNP) was 22.36 times and the “RLU / cell transfection efficiency, times that of YK-009” value ([3]; Fluc-mRNA LNP) was 5.24 times. For the same compound, the “RLU / cell transfection efficiency, times that of compound 21” value ([3]; Fluc-mRNA LNP) was 18.90 times, the “RLU / cell transfection efficiency, times that of compound 23” value ([3]; Fluc-mRNA LNP) was 20.17 times and the “cell transfection efficiency, times that of YK-223” value ([3]; Fluc-mRNA LNP) was 280.74 times. The “cell transfection efficiency, times that of YK-224” value ([3]; Fluc-mRNA LNP) was 239.25 times, the “cell transfection efficiency, times that of YK-226” value ([3]; Fluc-mRNA LNP) was 365.22 times and the “fluorescence absorption value / cell transfection efficiency, times that of YK-203” value ([3]; Fluc-mRNA LNP) was 5.44 times. The “fluorescence absorption value / cell transfection efficiency, times that of YK-204” value ([3]; Fluc-mRNA LNP) was 57 times and 57.85 times, the “fluorescence absorption value / cell transfection efficiency, times that of YK-205” value ([3]; Fluc-mRNA LNP) was 20.46 times and the “fluorescence absorption value / cell transfection efficiency, times that of YK-208” value ([3]; Fluc-mRNA LNP) was 5.46 times. The “fluorescence absorption value / cell transfection efficiency, times that of YK-210” value ([3]; Fluc-mRNA LNP) was 4.55 times, the “fluorescence absorption value / cell transfection efficiency, times that of YK-211” value ([3]; Fluc-mRNA LNP) was 15.37 times and the “fluorescence absorption value / cell transfection efficiency, times that of YK-212” value ([3]; Fluc-mRNA LNP) was 5.39 times. For the same compound, the “fluorescence absorption value / cell transfection efficiency, times that of YK-213” value ([3]; Fluc-mRNA LNP) was 15.43 times, the “fluorescence absorption value / cell transfection efficiency, times that of YK-214” value ([3]; Fluc-mRNA LNP) was 4.60 times and the “fluorescence absorption value / cell transfection efficiency, times that of YK-215” value ([3]; Fluc-mRNA LNP) was 21.46 times. The “fluorescence absorption value / cell transfection efficiency, times that of YK-216” value ([3]; Fluc-mRNA LNP) was 9.24 times, the “fluorescence absorption value / cell transfection efficiency, times that of YK-217” value ([3]; Fluc-mRNA LNP) was 293.09 times and the “fluorescence absorption value / cell transfection efficiency, times that of YK-218” value ([3]; Fluc-mRNA LNP) was 34.69 times. The “fluorescence absorption value / cell transfection efficiency, times that of YK-219” value ([3]; Fluc-mRNA LNP) was 13.98 times, the “fluorescence absorption value / cell transfection efficiency, times that of YK-220” value ([3]; Fluc-mRNA LNP) was 97.32 times and the “fluorescence absorption value, times that of YK-222” value ([3]; Fluc-mRNA LNP) was 34.73 times. The “Multiples of values that equivalent to YK-209” value ([3]; RLU of YK-209 / RLU of the named lipid) was 1.00.
